Test system: recombinant human P-selectin
Assay: Flow chamber: T cell-rolling on recombinant P-selectin, semi short-term conditions
Type: cell-based
Settings: +AMG 103 10 ng/ml, coated at 20 μg/ml
Description: Recombinant proteins (rhICAM-1 #ADP4-050, rhVCAM-1 #ADP5-050 or rhP-selectin #ADP3-050, R&D Systems) were dissolved in ddH2O according to the manufacturer's instructions. Prior to rolling experiments recombinant proteins were diluted in Dulbecco's PBS with Ca^2+ and Mg^2+ (#L1815, Biochrom) and coated onto a μ-slide VI^0.4 Luer ibiTreat (#80606, ibidi) over night at 4° C. Before usage slides were washed three times with Dulbecco's PBS and blocked where indicated with 20% FBS (#10270, Gibco) in PBS for 2 h at room temperature. Blocking solution was replaced by RPMI 1640 medium (#FG1215, Biochrom) without supplements.
Isolation and characterization of human peripheral blood mononuclear cells (PBMC) and T cells from blood were performed as described in Example 2 (p. 48, 1-31). […]
For rolling experiments using freshly isolated T cells, these cells were resuspended in RPMI 1640 medium (#FG1215, Biochrom) without supplements to a final concentration of 1×10^6 cells/ml at the start of the experiment (t=0 min; addition of 10 ng/ml Blinatumomab (AMG 103)) and incubated for 35 min at 37° C. and 5% CO2. Cells were then filled in a perfusion set “white” (#10963, ibidi) which was connected to both a fluidic unit and the μ-slide and image sequences of 45 sec duration were recorded at t=40 min, 45 min, and 50 min as described in Example 2 (p. 50, 18-23). […]

Blinatumomab: recombinant CD19×CD3 bispecific scFv antibody consisting of four immunoglobulin variable domains assembled into a single polypeptide chain
mean T cell-rolling velocity±SD (Jurkat E6.1 T cells, t=45 min, control −AMG 103 500±81): 413±104 μm/sec | mean T cell-rolling velocity±SD (freshly isolated T cells, t=50 min, with blocking, control −AMG 103 402±115): 293±73 μm/sec
